Measured values from patent US11230717B2, “Plants having increased tolerance to herbicides” (BASF SE, priority 2013, dated 2022).
“And” between values parts separate entries of the source, which are not always exact repeats. Equal values may be shown once.

Legend:
Experiment in all cases: HPPD activity assay, in vitro characterization of HPPD mutants
Type in all cases: biochemical
[1] = target: T1, Arabidopsis HPPD variant F381L (Arabidopsis thaliana, UniProt P93836, F381L); conditions: normalized to wildtype
T1 construct: His6 (N); made in house; host or cells: E. coli BL21 (DE3)
Experimental: (§1) HPPD produces homogentisic acid and CO2 from 4-hydroxyphenylpyruvate (4-HPP) and O2. The activity assay for HPPD is based on the analysis of homogentisic acid by reversed phase HPLC.
(§2) The assay mixture can contain 150 mM potassium phosphate buffer pH 7.0, 50 mM L-ascorbic acid, 100 μM Catalase (Sigma-Aldrich), 1 μM FeSO4 and 0.2 units of purified HPPD enzyme in a total volume of 505 μl. 1 unit is defined as the amount of enzyme that is required to produce 1 nmol of HGA per minute at 20° C.
(§3) After a preincubation of 30 min the reaction is started by adding 4-HPP to a final concentration of 0.05 mM. The reaction is allowed to proceed for 45 min at room temperature. The reaction is stopped by the addition of 50 μl of 4.5 M phosphoric acid. The sample is filtered using a […] pore size PVDF filtration device.
(§4) 5 μl of the cleared sample is analyzed on an UPLC HSS T3 column (particle size 1.8 μm, dimensions 2,1×50 mm; Waters) by isocratic elution using 90% 20 mM NaH2PO4 pH 2.2, 10% methanol (v/v).
(§5) HGA is detected electrochemically at 750 mV (mode: DC; polarity: positive) and quantified by integrating peak areas (Empower software; Waters).
(§6) Inhibitors are dissolved in DMSO (dimethylsulfoxide) to a concentration of 0.5 mM. From this stock solution serial five-fold dilutions are prepared in DMSO, which are used in the assay. The respective inhibitor solution accounts for 1% of the assay volume. […] Activities are normalized by setting the uninhibited enzyme activity to 100%. IC50 values are calculated using non-linear regression.
(§7) Purified, mutant HPPD enzymes are obtained by the methods described above. Dose response and kinetic measurements are carried out using the described HPPD activity assay. Apparent michaelis constants (Km) and maximal reaction velocities (Vmax) are calculated by non-linear regression with the software GraphPad Prism 5 (GraphPad Software, La Jolla, USA) using a substrate inhibition model. […] Weighted means (by standard error) of Km and IC50 values are calculated from at least three independent experiments.
(§8) Field performance of the optimized HPPD enzyme, which is used as a herbicide tolerance trait may depend not only on its lack of sensitivity towards HPPD inhibiting herbicides but also on its activity. To assess the potential performance of a herbicide tolerance trait a tolerance index (TI) is calculated using the following formula: […]

[2] = target: T2, Hordeum HPPD variant F377L (Hordeum vulgare, UniProt O48604, A164G/F377L/R146V/R147D/R148G); conditions: normalized to wild-type
T2 construct: His (N); made in house; host or cells: E. coli BL21 (DE3)
Experimental: as §1, §2, §3, §4, §5, §6, §7, §8

[3] = target: T3, Hordeum HPPD variant L320H (Hordeum vulgare, UniProt O48604, A164G/L320H/R146V/R147D/R148G); conditions: normalized to wild-type
T3 construct: His (N); made in house; host or cells: E. coli BL21 (DE3)
Experimental: as §1, §2, §3, §4, §5, §6, §7, §8

[4] = target: T4, Arabidopsis HPPD variant M335H, P336G (Arabidopsis thaliana, UniProt P93836, M335H/P336G); conditions: normalized to wildtype
T4 construct: His6 (N); made in house; host or cells: E. coli BL21 (DE3)
Experimental: as §1, §2, §3, §4, §5, §6, §7, §8

[5] = target: T5, Hordeum HPPD variant R309K (Hordeum vulgare, UniProt O48604, A164G/R146V/R147D/R148G/R309K); conditions: normalized to wild-type
T5 construct: His (N); made in house; host or cells: E. coli BL21 (DE3)
Experimental: as §1, §2, §3, §4, §5, §6, §7, §8

[6] = target: T6, Hordeum HPPD variant S252T (Hordeum vulgare, UniProt O48604, A164G/R146V/R147D/R148G/S252T); conditions: normalized to wild-type
T6 construct: His (N); made in house; host or cells: E. coli BL21 (DE3)
Experimental: as §1, §2, §3, §4, §5, §6, §7, §8

[7] = target: T7, Arabidopsis HPPD variant M335H, P336A (Arabidopsis thaliana, UniProt P93836, M335H/P336A); conditions: normalized to wildtype
T7 construct: His6 (N); made in house; host or cells: E. coli BL21 (DE3)
Experimental: as §1, §2, §3, §4, §5, §6, §7, §8

[8] = target: T8, Hordeum HPPD variant L320H, P321A (Hordeum vulgare, UniProt O48604, L320H/P321A); conditions: normalized to wild-type
T8 construct: His (N); made in house; host or cells: E. coli BL21 (DE3)
Experimental: as §1, §2, §3, §4, §5, §6, §7, §8

[9] = target: T9, Hordeum HPPD variant L250M (Hordeum vulgare, UniProt O48604, A164G/L250M/R146V/R147D/R148G); conditions: normalized to wild-type
T9 construct: His (N); made in house; host or cells: E. coli BL21 (DE3)
Experimental: as §1, §2, §3, §4, §5, §6, §7, §8

[10] = target: T10, Hordeum HPPD variant F404L (Hordeum vulgare, UniProt O48604, A164G/F404L/R146V/R147D/R148G); conditions: normalized to wild-type
T10 construct: His (N); made in house; host or cells: E. coli BL21 (DE3)
Experimental: as §1, §2, §3, §4, §5, §6, §7, §8

[11] = target: T11, Hordeum HPPD variant L353M, P321R, L320N (Hordeum vulgare, UniProt O48604, L320N/L353M/P321R); conditions: normalized to wild-type
T11 construct: His (N); made in house; host or cells: E. coli BL21 (DE3)
Experimental: as §1, §2, §3, §4, §5, §6, §7, §8

[12] = target: T12, Arabidopsis HPPD variant M335H, P336G, E363Q (Arabidopsis thaliana, UniProt P93836, E363Q/M335H/P336G); conditions: normalized to wildtype
T12 construct: His6 (N); made in house; host or cells: E. coli BL21 (DE3)
Experimental: as §1, §2, §3, §4, §5, §6, §7, §8

T3 sequence (O48604 whole entry R146V/R147D/R148G/A164G/L320H): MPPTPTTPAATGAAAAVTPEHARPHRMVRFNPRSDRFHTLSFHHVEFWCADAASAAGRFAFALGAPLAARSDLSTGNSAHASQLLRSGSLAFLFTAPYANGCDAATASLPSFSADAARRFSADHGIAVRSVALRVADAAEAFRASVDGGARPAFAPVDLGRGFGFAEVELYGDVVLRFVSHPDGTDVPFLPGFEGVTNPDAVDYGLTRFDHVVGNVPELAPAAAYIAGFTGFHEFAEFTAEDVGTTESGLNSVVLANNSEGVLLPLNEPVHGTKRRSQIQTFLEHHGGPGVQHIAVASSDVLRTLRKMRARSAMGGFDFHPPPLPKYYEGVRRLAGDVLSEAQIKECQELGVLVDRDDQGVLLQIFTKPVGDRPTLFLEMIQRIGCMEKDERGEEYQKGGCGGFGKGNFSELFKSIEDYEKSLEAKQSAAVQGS
T10 sequence (O48604 whole entry R146V/R147D/R148G/A164G/F404L): as the sequence (O48604 whole entry R146V/R147D/R148G/A164G/L320H) above, with H320L, F404L counted along it
T7 sequence (P93836 whole entry M335H/P336A): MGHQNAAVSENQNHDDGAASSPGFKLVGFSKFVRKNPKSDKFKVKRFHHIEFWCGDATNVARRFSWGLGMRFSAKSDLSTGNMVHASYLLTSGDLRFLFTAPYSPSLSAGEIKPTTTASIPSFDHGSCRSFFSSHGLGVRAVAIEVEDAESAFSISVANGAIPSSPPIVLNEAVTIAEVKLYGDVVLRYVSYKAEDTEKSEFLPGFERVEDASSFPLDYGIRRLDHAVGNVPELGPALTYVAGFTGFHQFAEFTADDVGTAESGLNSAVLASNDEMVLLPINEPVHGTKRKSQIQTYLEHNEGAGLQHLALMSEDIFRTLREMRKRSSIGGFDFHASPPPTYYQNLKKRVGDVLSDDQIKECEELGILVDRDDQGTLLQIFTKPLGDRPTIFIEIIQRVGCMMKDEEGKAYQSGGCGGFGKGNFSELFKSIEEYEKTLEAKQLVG
T9 sequence (O48604 whole entry R146V/R147D/R148G/A164G/L250M): as the sequence (O48604 whole entry R146V/R147D/R148G/A164G/L320H) above, with L250M, H320L counted along it
T5 sequence (O48604 whole entry R146V/R147D/R148G/A164G/R309K): as the sequence (O48604 whole entry R146V/R147D/R148G/A164G/L320H) above, with R309K, H320L counted along it
T12 sequence (P93836 whole entry M335H/P336G/E363Q): as the sequence (P93836 whole entry M335H/P336A) above, with A336G, E363Q counted along it
T11 sequence (O48604 whole entry R146V/R147D/R148G/A164G/L320N/P321R/L353M): as the sequence (O48604 whole entry R146V/R147D/R148G/A164G/L320H) above, with H320N, P321R, L353M counted along it
T8 sequence (O48604 whole entry R146V/R147D/R148G/A164G/L320H/P321A): as the sequence (O48604 whole entry R146V/R147D/R148G/A164G/L320H) above, with P321A counted along it
T2 sequence (O48604 whole entry R146V/R147D/R148G/A164G/F377L): as the sequence (O48604 whole entry R146V/R147D/R148G/A164G/L320H) above, with H320L, F377L counted along it
T4 sequence (P93836 whole entry M335H/P336G): as the sequence (P93836 whole entry M335H/P336A) above, with A336G counted along it
T6 sequence (O48604 whole entry R146V/R147D/R148G/A164G/S252T): as the sequence (O48604 whole entry R146V/R147D/R148G/A164G/L320H) above, with S252T, H320L counted along it
T1 sequence (P93836 whole entry F381L): as the sequence (P93836 whole entry M335H/P336A) above, with H335M, A336P, F381L counted along it

Structure (SMILES)	Normalized tolerance index (TI) [1]	Normalized tolerance index (TI) [2]	Normalized tolerance index (TI) [3]	Normalized tolerance index (TI) [4]	Normalized tolerance index (TI) [5]	Normalized tolerance index (TI) [6]	Normalized tolerance index (TI) [7]	Normalized tolerance index (TI) [8]	Normalized tolerance index (TI) [9]	Normalized tolerance index (TI) [10]	Normalized tolerance index (TI) [11]	Normalized tolerance index (TI) [12]
Cn1nnnc1NC(=O)c1c(F)cc(Cl)c(S(C)(=O)=O)c1Cl [Inhibitor 1, 2,4-dichloro-6-fluoro-3-methylsulfonyl-N-(1-methyltetrazol-5-yl)benzamide]	1.2	11.8	4 and 4.6	0.5	2.6	1.8	0.6	3.7	3.1	1.6	1.9	0.2
CSc1c(Cl)cc(F)c(C(=O)Nc2ncnn2C)c1Cl [Inhibitor 3, 2,4-dichloro-6-fluoro-3-methylsulfanyl-N-(2-methyl-1,2,4-triazol-3-yl)benzamide]	0.2	2	1.9	0.1	3	11.1	0.2	14.3	1	1.8	0.9	0.3
